Test: Solubility of the solids in organic and aqueous media / common solvents
Type: physicochemical

solubility (form insoluble solids) (in both organic and aqueous media): insoluble
solubility (in common NMR solvents): insoluble
solubility (in common organic solvents): highly insoluble
SMILES: Nc1c(N)c(=O)c2[nH]c3c(=O)c(N)c(N)c(=O)c3[nH]c2c1=O [BTABQ, tetraamino-dihydrophenazine-1,4,6,9-tetrone]

— patent publication US20250140486A1, “FUSED AROMATIC MOLECULES AS ELECTRODE MATERIALS” (Massachusetts Institute of Technology, priority 2021, published 2025)
